Experimental findings from patent US20100292188A1, “Compounds Comprising A Cyclobutoxy Group” (UCB PHARMA S.A., priority 2008, published 2010) are described below.

In general, melting point refers to the temperature of the solid-liquid transition. In the case of `OC[C@@H](O)CN1CCc2nc(-c3ccc(O[C@H]4C[C@H](N5CCCCC5)C4)cc3)sc2C1` [Compound 16, (2S)-3-[2-{4-[(trans-3-piperidin-1-ylcyclobutyl)oxy]phenyl}-6,7-dihydro[1,3]thiazolo[5,4-c]pyridin-5(4H)-yl]propane-1,2-diol], the melting point is 175 °C. Take `NC(=O)CC(=O)N1CCc2nc(-c3ccc(O[C@H]4C[C@H](N5CCCCC5)C4)cc3)sc2C1` [Compound 25, 3-oxo-3-[2-{4-[(trans-3-piperidin-1-ylcyclobutyl)oxy]phenyl}-6,7-dihydro[1,3]thiazolo[5,4-c]pyridin-5(4H)-yl]propanamide]: the melting point came out at 176 °C. `O[C@H]1C[C@@H](N2CCc3nc(-c4ccc(O[C@H]5C[C@H](N6CCCCC6)C5)cc4)sc3C2)C1` [Compound 24, cis-3-[2-{4-[(trans-3-piperidin-1-ylcyclobutyl)oxy]phenyl}-6,7-dihydro[1,3]thiazolo[5,4-c]pyridin-5(4H)-yl]cyclobutanol] came in with a melting point of 169 °C. As for `O=C(C1CCOCC1)N1CCc2nc(-c3ccc(O[C@H]4C[C@H](N5CCCCC5)C4)cc3)sc2C1` [Compound 45, 2-{4-[(trans-3-piperidin-1-ylcyclobutyl)oxy]phenyl}-5-(tetrahydro-2H-pyran-4-ylcarbonyl)-4,5,6,7-tetrahydro[1,3]thiazolo[5,4-c]pyridine], the melting point lay in the range of 175 to 176 °C. In the case of `Cc1n[nH]nc1C(=O)N1CCc2nc(-c3ccc(O[C@H]4C[C@H](N5CCCCC5)C4)cc3)sc2C1` [Compound 35, 5-[(5-methyl-2H-1,2,3-triazol-4-yl)carbonyl]-2-{4-[(trans-3-piperidin-1-ylcyclobutyl)oxy]phenyl}-4,5,6,7-tetrahydro[1,3]thiazolo[5,4-c]pyridine], the melting point was 150 to 154 °C. In the case of `OC[C@H](O)CN1CCc2nc(-c3ccc(O[C@H]4C[C@H](N5CCCCC5)C4)cc3)sc2C1` [Compound 17, (2R)-3-[2-{4-[(trans-3-piperidin-1-ylcyclobutyl)oxy]phenyl}-6,7-dihydro[1,3]thiazolo[5,4-c]pyridin-5(4H)-yl]propane-1,2-diol], the melting point was found to be 172 °C. In turn, `CCOC(=O)C(=O)N1CCc2nc(-c3ccc(O[C@H]4C[C@H](N5CCCCC5)C4)cc3)sc2C1` [Compound 49, ethyl oxo[2-{4-[(trans-3-piperidin-1-ylcyclobutyl)oxy]phenyl}-6,7-dihydro[1,3]thiazolo[5,4-c]pyridin-5(4H)-yl]acetate] showed a melting point of 145 to 146 °C. `COCC(=O)N1CCc2nc(-c3ccc(O[C@H]4C[C@H](N5CCCCC5)C4)cc3)sc2C1` [Compound 2, 5-(methoxyacetyl)-2-{4-[(trans-3-piperidin-1-ylcyclobutyl)oxy]phenyl}-4,5,6,7-tetrahydro[1,3]thiazolo[5,4-c]pyridine]: the melting point stood at 128 °C. In turn, `CC(=O)N1CCc2sc(-c3ccc(O[C@H]4C[C@H](N5CCCCC5)C4)cc3)nc2C1` [Compound 29, 5-acetyl-2-{4-[(trans-3-piperidin-1-ylcyclobutyl)oxy]phenyl}-4,5,6,7-tetrahydro[1,3]thiazolo[4,5-c]pyridine] showed a melting point of 154.2 °C.

As for `O=C(CC(F)(F)F)N1CCc2nc(-c3ccc(O[C@H]4C[C@H](N5CCCCC5)C4)cc3)sc2C1` [Compound 33, 2-{4-[(trans-3-piperidin-1-ylcyclobutyl)oxy]phenyl}-5-(3,3,3-trifluoropropanoyl)-4,5,6,7-tetrahydro[1,3]thiazolo[5,4-c]pyridine], the melting point was 167 to 168 °C. Under `CCNC(=O)N1CCc2nc(-c3ccc(O[C@H]4C[C@H](N5CCCCC5)C4)cc3)sc2C1` [Compound 21, N-ethyl-2-{4-[(trans-3-piperidin-1-ylcyclobutyl)oxy]phenyl}-6,7-dihydro[1,3]thiazolo[5,4-c]pyridine-5(4H)-carboxamide] stands 200 °C. Take `CC(C)(C)OC(=O)N1CCc2nc(-c3ccc(O[C@H]4C[C@H](N5CCCCC5)C4)cc3)sc2C1` [Compound 3, tert-butyl 2-{4-[(trans-3-piperidin-1-ylcyclobutyl)oxy]phenyl}-6,7-dihydro[1,3]thiazolo[5,4-c]pyridine-5(4H)-carboxylate]: the melting point came out at 162.3 °C. Take `OCC(O)CN1CCc2nc(-c3ccc(O[C@H]4C[C@H](N5CCCCC5)C4)cc3)sc2C1` (stereo partly drawn) [Compound 15, 3-[2-{4-[(trans-3-piperidin-1-ylcyclobutyl)oxy]phenyl}-6,7-dihydro[1,3]thiazolo[5,4-c]pyridin-5(4H)-yl]propane-1,2-diol]: the melting point was 169 °C. `CC(=O)N1CCCCc2nc(-c3ccc(O[C@H]4C[C@H](N5CCCCC5)C4)cc3)sc21` [Compound 31, 4-acetyl-2-{4-[(trans-3-piperidin-1-ylcyclobutyl)oxy]phenyl}-5,6,7,8-tetrahydro-4H-[1,3]thiazolo[5,4-b]azepine] came in with a melting point of 49 °C. The same measure for `O=C(CCCN1CC[S+]([O-])CC1)N1CCc2nc(-c3ccc(O[C@H]4C[C@H](N5CCCCC5)C4)cc3)sc2C1` [Compound 41, 5-[4-(1-oxidothiomorpholin-4-yl)butanoyl]-2-{4-[(trans-3-piperidin-1-ylcyclobutyl)oxy]phenyl}-4,5,6,7-tetrahydro[1,3]thiazolo[5,4-c]pyridine]: 165 °C.

Regarding `O=S(=O)(N1CCOCC1)N1CCc2nc(-c3ccc(O[C@H]4C[C@H](N5CCCCC5)C4)cc3)sc2C1` [Compound 7, 5-(morpholin-4-ylsulfonyl)-2-{4-[(trans-3-piperidin-1-ylcyclobutyl)oxy]phenyl}-4,5,6,7-tetrahydro[1,3]thiazolo[5,4-c]pyridine], the melting point amounted to 178 °C. As to `CC(C)Oc1c(N2CCc3nc(-c4ccc(O[C@H]5C[C@H](N6CCCCC6)C5)cc4)sc3C2)c(=O)c1=O` [Compound 56, 3-isopropoxy-4-[2-{4-[(trans-3-piperidin-1-ylcyclobutyl)oxy]phenyl}-6,7-dihydro[1,3]thiazolo[5,4-c]pyridin-5(4H)-yl]cyclobut-3-ene-1,2-dione], the melting point is 157 to 159 °C. Under `CC(=O)N1CCc2nc(-c3ccc(O[C@H]4C[C@H](N5CCCCC5)C4)cc3)sc2C1` [Compound 4, 5-acetyl-2-{4-[(trans-3-piperidin-1-ylcyclobutyl)oxy]phenyl}-4,5,6,7-tetrahydro[1,3]thiazolo[5,4-c]pyridine] stands 170.3 °C. In turn, `NC(=O)N1CCc2sc(-c3ccc(O[C@H]4C[C@H](N5CCCCC5)C4)cc3)nc2C1` [Compound 64, 2-{4-[(trans-3-piperidin-1-ylcyclobutyl)oxy]phenyl}-6,7-dihydro[1,3]thiazolo[4,5-c]pyridine-5(4H)-carboxamide] gave a melting point of 214.3 °C. In turn, `CC(=O)N1CCc2nc(-c3ccc(O[C@H]4C[C@H](N5CCCCCC5)C4)cc3)sc2C1` [Compound 19, 5-acetyl-2-{4-[(trans-3-azepan-1-ylcyclobutyl)oxy]phenyl}-4,5,6,7-tetrahydro[1,3]thiazolo[5,4-c]pyridine] registered a melting point of 135 °C. For `NC(=O)CC(=O)N1CCc2sc(-c3ccc(O[C@H]4C[C@H](N5CCCCC5)C4)cc3)nc2C1` [Compound 65, 3-oxo-3-[2-{4-[(trans-3-piperidin-1-ylcyclobutyl)oxy]phenyl}-6,7-dihydro[1,3]thiazolo[4,5-c]pyridin-5(4H)-yl]propanamide], the melting point worked out at 183.4 °C. `NCC(=O)N1CCc2nc(-c3ccc(O[C@H]4C[C@H](N5CCCCC5)C4)cc3)sc2C1` [Compound 9, 2-oxo-2-[2-{4-[(trans-3-piperidin-1-ylcyclobutyl)oxy]phenyl}-6,7-dihydro[1,3]thiazolo[5,4-c]pyridin-5(4H)-yl]ethanamine] registered a melting point of 199 °C. With `c1cc(-c2nc3c(s2)CNCC3)ccc1O[C@H]1C[C@H](N2CCCCC2)C1` [Compound 5, 2-{4-[(trans-3-piperidin-1-ylcyclobutyl)oxy]phenyl}-4,5,6,7-tetrahydro[1,3]thiazolo[5,4-c]pyridine], the melting point stood at 144.5 °C. The compound `CC(=O)N1CCc2nc(-c3ccc(O[C@H]4C[C@H](N5CCSCC5)C4)cc3)sc2C1` [Compound 22, 5-acetyl-2-{4-[(trans-3-thiomorpholin-4-ylcyclobutyl)oxy]phenyl}-4,5,6,7-tetrahydro[1,3]thiazolo[5,4-c]pyridine] had a melting point of 196 °C. The compound `O=C(CO)N1CCc2nc(-c3ccc(O[C@H]4C[C@H](N5CCCCC5)C4)cc3)sc2C1` [Compound 11, 2-oxo-2-[2-{4-[(trans-3-piperidin-1-ylcyclobutyl)oxy]phenyl}-6,7-dihydro[1,3]thiazolo[5,4-c]pyridin-5(4H)-yl]ethanol] showed a melting point of 177 °C.

In the case of `CC(=O)N1CCc2nc(-c3ccc(O[C@H]4C[C@H](N5CCN(C6CCCC6)CC5)C4)cc3)sc2C1` [Compound 51, 5-acetyl-2-(4-{[trans-3-(4-cyclopentylpiperazin-1-yl)cyclobutyl]oxy}phenyl)-4,5,6,7-tetrahydro[1,3]thiazolo[5,4-c]pyridine], the melting point was in the range of 145.7 to 146.1 °C. For `CC(=O)NCCC(=O)N1CCc2nc(-c3ccc(O[C@H]4C[C@H](N5CCCCC5)C4)cc3)sc2C1` [Compound 42, N-{3-oxo-3-[2-{4-[(trans-3-piperidin-1-ylcyclobutyl)oxy]phenyl}-6,7-dihydro[1,3]thiazolo[5,4-c]pyridin-5(4H)-yl]propyl}acetamide], the melting point was 144 °C. The compound `c1cc2sc(-c3ccc(O[C@H]4C[C@H](N5CCCCC5)C4)cc3)nc2cn1` [Compound 32, 2-{4-[(trans-3-piperidin-1-ylcyclobutyl)oxy]phenyl}[1,3]thiazolo[4,5-c]pyridine] came in with a melting point of 65 °C. Consider `CC(=O)N1CCc2nc(-c3ccc(O[C@H]4C[C@H](N5CCCCC5)C4)cc3F)sc2C1` [Compound 36, 5-acetyl-2-{2-fluoro-4-[(trans-3-piperidin-1-ylcyclobutyl)oxy]phenyl}-4,5,6,7-tetrahydro[1,3]thiazolo[5,4-c]pyridine], for which the melting point is 142.8 °C. The same measure for `CC(=O)N1CCc2nc(-c3ccc(O[C@H]4C[C@H](N5CCOCC5)C4)cc3)sc2C1` [Compound 8, 5-acetyl-2-{4-[(trans-3-morpholin-4-ylcyclobutyl)oxy]phenyl}-4,5,6,7-tetrahydro[1,3]thiazolo[5,4-c]pyridine]: 161.6 to 162.2 °C.
